# In patent US8541460B2, “PDK-1/Akt signaling inhibitors” (The Ohio State University, priority 2003, dated 2013):
# Key:
# [1] = system: immunoprecipitated Akt; experiment: Direct inhibition of immunoprecipitated Akt kinase activity; format: biochemical, human
# [2] = system: COLO 205; experiment: NCI DTP cell line screen (SRB), Colon Cancer; format: cell-based, human
# Description: (§1) Screening of compounds 70 and 71 against several cancer cell lines The human tumor cell lines of the cancer screening panel are grown in RPMI 1640 medium containing 5% fetal bovine serum and 2 mM L-glutamine. For a typical screening experiment, cells are inoculated into 96 well microtiter plates in 100 μL at plating densities ranging from 5,000 to 40,000 cells/well depending on the doubling time of individual cell lines. After cell inoculation, the microtiter plates are incubated at 37° C., 5% CO2, 95% air and 100% relative humidity for 24 h prior to addition of experimental drugs.
# (§2) After 24 h, two plates of each cell line are fixed in situ with TCA, to represent a measurement of the cell population for each cell line at the time of drug addition (Tz). Experimental drugs are solubilized in dimethyl sulfoxide at 400-fold the desired final maximum test concentration and stored frozen prior to use. At the time of drug addition, an aliquot of frozen concentrate is thawed and diluted to twice the desired final maximum test concentration with complete medium containing 50 μg/ml gentamicin. Additional four, 10-fold or ½ log serial dilutions are made to provide a total of five drug concentrations plus control. Aliquots of 100 μl of these different drug dilutions are added to the appropriate microtiter wells already containing 100 μl of medium, resulting in the required final drug concentrations.
# (§3) Following drug addition, the plates are incubated for an additional 48 h at 37° C., 5% CO2, 95% air, and 100% relative humidity. For adherent cells, the assay is terminated by the addition of cold TCA. Cells are fixed in situ by the gentle addition of 50 μl of cold 50% (w/v) TCA (final concentration, 10% TCA) and incubated for 60 minutes at 4° C. The supernatant is discarded, and the plates are washed five times with tap water and air dried. Sulforhodamine B (SRB) solution (100 μl) at 0.4% (w/v) in 1% acetic acid is added to each well, and plates are incubated for 10 minutes at room temperature. After staining, unbound dye is removed by washing five times with 1% acetic acid and the plates are air dried. Bound stain is subsequently solubilized with 10 mM trizma base, and the absorbance is read on an automated plate reader at a wavelength of 515 nm. For suspension cells, the methodology is the same except that the assay is terminated by fixing settled cells at the bottom of the wells by gently adding 50 μl of 80% TCA (final concentration, 16% TCA). Using the seven absorbance measurements [time zero, (Tz), control growth, (C), and test growth in the presence of drug at the five concentration levels (Ti)], the percentage growth is calculated at each of the drug concentrations levels. Percentage growth inhibition is calculated as: [(Ti−Tz)/(C−Tz)]×100 for concentrations for which Ti>/=Tz [(Ti−Tz)/Tz]×100 for concentrations for which Ti<Tz
# (§4) Three dose response parameters are calculated for each experimental agent. […] The drug concentration resulting in total growth inhibition (TGI) is calculated from Ti=Tz. […] Values are calculated for each of these three parameters if the level of activity is reached; however, if the effect is not reached or is exceeded, the value for that parameter is expressed as greater or less than the maximum or minimum concentration tested.
# (§5) The methods described were used to test compounds 70 and 71 on a panel of sixty cell lines under a screening service provided by the Developmental Therapeutics Program at the National Institutes of Health. Shown in FIG. 1C are 1, RPMI-8226 leukemia cells; 2; NCI-H322M non-small cell lung cancer cells; 3, HT29 colon cancer cells; 4, U251 CNS cancer cells; 5, SK-MEL-28 melanoma cancer cells; 6, SK-OV-3 ovarian cancer cells; 7, RXF 393 renal cancer cells; 8, PC-3 prostate cancer cells; 9, MDA-MB-231 breast cancer cells.
# [3] = system: SK-OV-3; experiment: NCI DTP cell line screen (SRB), Ovarian Cancer; format: cell-based, human
# Description: as §1, §2, §3, §4, §5
# [4] = system: MCF7; experiment: NCI DTP cell line screen (SRB), Breast Cancer; format: cell-based, human
# Description: as §1, §2, §3, §4, §5
# [5] = system: MDA-MB-435; experiment: NCI DTP cell line screen (SRB), Breast Cancer; format: cell-based, human
# Description: as §1, §2, §3, §4, §5
# [6] = system: HS 578T; experiment: NCI DTP cell line screen (SRB), Breast Cancer; format: cell-based; details: HS 578T
# Description: as §1, §2, §3, §4, §5
# [7] = system: MDA-MB-231/ATCC; experiment: NCI DTP cell line screen (SRB), Breast Cancer; format: cell-based
# Description: as §1, §2, §3, §4, §5
# [8] = system: NCI/ADR-RES; experiment: NCI DTP cell line screen (SRB), Breast Cancer; format: cell-based
# Description: as §1, §2, §3, §4, §5
# [9] = system: T-47D; experiment: NCI DTP cell line screen (SRB), Breast Cancer; format: cell-based
# Description: as §1, §2, §3, §4, §5
# [10] = read-out: LC50 (the source's name)
smiles,measurement,setting,value
"N=C(N)Nc1ccc(-n2nc(C(F)(F)F)cc2-c2ccc3c(ccc4ccccc43)c2)cc1 [Compound 71, 4-[5-(2-Phenanthrenyl)-3-(trifluoromethyl)-1H-pyrazol-1-yl]-phenyl-guanidine]",direct inhibitory effect on immunoprecipitated Akt activity,[1],no appreciable direct inhibition
same,GI50,[2],1.36 µM
same,TGI,[2],2.69E−06
same,Mean Optical Densities,[2]; Log10 Concentration −4.0,0.151
same,Percent Growth,[2]; Log10 Concentration −4.0,−32%
same,Mean Optical Densities,[2]; Log10 Concentration −5.0,0.009
same,Percent Growth,[2]; Log10 Concentration −5.0,−96%
same,Mean Optical Densities,[2]; Log10 Concentration −6.0,0.930
same,Percent Growth,[2]; Log10 Concentration −6.0,73%
same,Mean Optical Densities,[2]; Log10 Concentration −7.0,1.028
same,Percent Growth,[2]; Log10 Concentration −7.0,83%
same,Mean Optical Densities,[2]; Log10 Concentration −8.0,1.146
same,Percent Growth,[2]; Log10 Concentration −8.0,95%
same,GI50,[3],1.43 µM
same,TGI,[3],2.94E−06
same,Mean Optical Densities,[3]; Log10 Concentration −4.0,0.278
same,Percent Growth,[3]; Log10 Concentration −4.0,−30%
same,Mean Optical Densities,[3]; Log10 Concentration −5.0,0.062
same,Percent Growth,[3]; Log10 Concentration −5.0,−85%
same,Mean Optical Densities,[3]; Log10 Concentration −6.0,1.093
same,Percent Growth,[3]; Log10 Concentration −6.0,75%
same,Mean Optical Densities,[3]; Log10 Concentration −7.0,1.245
same,Percent Growth,[3]; Log10 Concentration −7.0,91%
same,Mean Optical Densities,[3]; Log10 Concentration −8.0,1.261
same,Percent Growth,[3]; Log10 Concentration −8.0,93%
same,GI50,[4],1.82 µM
same,Mean Optical Densities,[4]; Log10 Concentration −4.0,0.229
same,Percent Growth,[4]; Log10 Concentration −4.0,−49%
same,Mean Optical Densities,[4]; Log10 Concentration −5.0,0.073
same,Percent Growth,[4]; Log10 Concentration −5.0,−84%
same,Mean Optical Densities,[4]; Log10 Concentration −6.0,1.507
same,Percent Growth,[4]; Log10 Concentration −6.0,97%
same,Mean Optical Densities,[4]; Log10 Concentration −7.0,1.340
same,Percent Growth,[4]; Log10 Concentration −7.0,82%
same,Mean Optical Densities,[4]; Log10 Concentration −8.0,1.467
same,Percent Growth,[4]; Log10 Concentration −8.0,93%
same,TGI,"[4]; MCP7, in M (unit assumed)",3.44E−06
same,GI50,[5],1.7 µM
same,Mean Optical Densities,[5]; Log10 Concentration −4.0,0.295
same,Percent Growth,[5]; Log10 Concentration −4.0,−27%
same,Mean Optical Densities,[5]; Log10 Concentration −5.0,−0.073
same,Percent Growth,[5]; Log10 Concentration −5.0,−100%
same,Mean Optical Densities,[5]; Log10 Concentration −6.0,1.444
same,Percent Growth,[5]; Log10 Concentration −6.0,95%
same,Mean Optical Densities,[5]; Log10 Concentration −7.0,1.382
same,Percent Growth,[5]; Log10 Concentration −7.0,89%
same,Mean Optical Densities,[5]; Log10 Concentration −8.0,1.376
same,Percent Growth,[5]; Log10 Concentration −8.0,89%
same,TGI,[5]; in M (unit assumed),3.07E−06
same,GI50,[6],1.86 µM
same,TGI,[6],3.78E−06
same,Mean Optical Densities,[6]; Log10 Concentration −4.0,0.333
same,Percent Growth,[6]; Log10 Concentration −4.0,−38%
same,Mean Optical Densities,[6]; Log10 Concentration −5.0,0.168
same,Percent Growth,[6]; Log10 Concentration −5.0,−69%
same,Mean Optical Densities,[6]; Log10 Concentration −6.0,1.127
same,Percent Growth,[6]; Log10 Concentration −6.0,94%
same,Mean Optical Densities,[6]; Log10 Concentration −7.0,1.165
same,Percent Growth,[6]; Log10 Concentration −7.0,100%
same,Mean Optical Densities,[6]; Log10 Concentration −8.0,1.099
same,Percent Growth,[6]; Log10 Concentration −8.0,89%
same,TGI,[7],1.66E−06
same,Mean Optical Densities,[7]; Log10 Concentration −4.0,0.389
same,Percent Growth,[7]; Log10 Concentration −4.0,−39%
same,Mean Optical Densities,[7]; Log10 Concentration −5.0,0.015
same,Percent Growth,[7]; Log10 Concentration −5.0,−98%
same,Mean Optical Densities,[7]; Log10 Concentration −6.0,0.709
same,Percent Growth,[7]; Log10 Concentration −6.0,27%
same,Mean Optical Densities,[7]; Log10 Concentration −7.0,0.830
same,Percent Growth,[7]; Log10 Concentration −7.0,78%
same,Mean Optical Densities,[7]; Log10 Concentration −8.0,0.756
same,Percent Growth,[7]; Log10 Concentration −8.0,47%
same,GI50,[8],2.64 µM
same,TGI,[8],7.73E−06
same,Mean Optical Densities,[8]; Log10 Concentration −4.0,0.294
same,Percent Growth,[8]; Log10 Concentration −4.0,−47%
same,Mean Optical Densities,[8]; Log10 Concentration −5.0,0.490
same,Percent Growth,[8]; Log10 Concentration −5.0,−12%
same,Mean Optical Densities,[8]; Log10 Concentration −6.0,1.874
same,Percent Growth,[8]; Log10 Concentration −6.0,95%
same,Mean Optical Densities,[8]; Log10 Concentration −7.0,1.882
same,Percent Growth,[8]; Log10 Concentration −7.0,96%
same,Mean Optical Densities,[8]; Log10 Concentration −8.0,1.920
same,Percent Growth,[8]; Log10 Concentration −8.0,98%
same,CC50,[8]; [10],> 100 µM
same,GI50,[9],< 0.01 µM
same,TGI,[9],1.98E−06
same,Mean Optical Densities,[9]; Log10 Concentration −4.0,0.198
same,Percent Growth,[9]; Log10 Concentration −4.0,−53%
same,Mean Optical Densities,[9]; Log10 Concentration −5.0,0.100
same,Percent Growth,[9]; Log10 Concentration −5.0,−76%
same,Mean Optical Densities,[9]; Log10 Concentration −6.0,0.529
same,Percent Growth,[9]; Log10 Concentration −6.0,32%
same,Mean Optical Densities,[9]; Log10 Concentration −7.0,0.578
same,Percent Growth,[9]; Log10 Concentration −7.0,47%
same,Mean Optical Densities,[9]; Log10 Concentration −8.0,0.541
same,Percent Growth,[9]; Log10 Concentration −8.0,36%
same,CC50,[9]; [10],5.72 µM
